Assay results: PubChem BioAssay (NCI)
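Five compound concentrations were applied to cells in 96-well plates for 48 hours; endpoints were derived by simple linear interpolation of the resulting dose-response curve. TGI: total growth inhibition.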

Tests used:
Experiment in all cases: NCI anticancer screen, dose series, 48 h
SNB-75 CNS = system: SNB-75 CNS
SN12C renal = system: SN12C renal
SK-MEL-28 melanoma = system: SK-MEL-28 melanoma
SF-295 CNS = system: SF-295 CNS
SK-MEL-5 melanoma = system: SK-MEL-5 melanoma
IGROV1 ovarian = system: IGROV1 ovarian
HCT-15 colon = system: HCT-15 colon
NCI-H460 lung = system: NCI-H460 lung
NCI-H226 lung = system: NCI-H226 lung
CCRF-CEM leukemia = system: CCRF-CEM leukemia
SK-MEL-2 melanoma = system: SK-MEL-2 melanoma
U251 CNS = system: U251 CNS
SK-OV-3 ovarian = system: SK-OV-3 ovarian
HL-60(TB) leukemia = system: HL-60(TB) leukemia
NCI/ADR-RES ovarian = system: NCI/ADR-RES ovarian
MDA-MB-231 breast = system: MDA-MB-231 breast
HS 578T breast = system: HS 578T breast

| SMILES | TGI (SNB-75 CNS) | TGI (SN12C renal) | TGI (SK-MEL-28 melanoma) | TGI (SF-295 CNS) | TGI (SK-MEL-5 melanoma) | TGI (IGROV1 ovarian) | TGI (HCT-15 colon) | TGI (NCI-H460 lung) | TGI (NCI-H226 lung) | TGI (CCRF-CEM leukemia) | TGI (SK-MEL-2 melanoma) | TGI (U251 CNS) | TGI (SK-OV-3 ovarian) | TGI (HL-60(TB) leukemia) | TGI (NCI/ADR-RES ovarian) | TGI (MDA-MB-231 breast) | TGI (HS 578T breast) |
| --- | --- | --- | --- | --- | --- | --- | --- | --- | --- | --- | --- | --- | --- | --- | --- | --- | --- |
| CC(=O)NC(CCCCNCc1ccccc1)C(=O)NCc1ccccc1 (centres undefined) | > 100 µM | > 100 µM | > 100 µM | > 100 µM | > 100 µM | > 100 µM | > 100 µM | > 100 µM | > 100 µM | > 100 µM | > 100 µM | > 100 µM | > 100 µM | – | – | – | – |
| CC1(O)CC2C(CC1SC1CC3C(CC1(C)O)C3(C)C)C2(C)C (centres undefined) | 80.1 µM | > 100 µM | > 100 µM | > 100 µM | 59.7 µM | > 100 µM | > 100 µM | > 100 µM | > 100 µM | 95.9 µM | > 100 µM | > 100 µM | > 100 µM | 58.5 µM | – | – | – |
| CCOc1ccc(N(CC(=O)N2CC(=O)Nc3cc(C)c(C)cc32)C(C)=O)cc1 | > 100 µM | > 100 µM | > 100 µM | > 100 µM | > 100 µM | – | > 100 µM | > 100 µM | > 100 µM | > 100 µM | > 100 µM | > 100 µM | > 100 µM | > 100 µM | – | – | – |
| Cc1ccc(C(=O)NC2CCCCC2)cc1N=NN(C)C | – | > 100 µM | > 100 µM | > 100 µM | > 100 µM | > 100 µM | > 100 µM | > 100 µM | – | – | > 100 µM | > 100 µM | – | – | – | – | – |
| COc1cc([C@@H]2c3cc4c(cc3[C@@H](NCc3ccccc3F)C3COC(=O)[C@@H]32)OCO4)cc(OC)c1O (some centres undefined) | 42.6 µM | 8.08 µM | 46.6 µM | > 100 µM | 7.86 µM | 20.5 µM | 22.4 µM | 13.2 µM | 7.52 µM | > 100 µM | 49.8 µM | 9.02 µM | 9.45 µM | 4.26 µM | – | – | – |
| Cc1ccc(S(=O)(=O)N(CCN)c2cc3c4c(c2)Oc2cccc5c2C4c2c(cccc2O3)O5)cc1 | 25.1 µM | > 100 µM | 66.3 µM | 54.5 µM | 45.5 µM | 23.7 µM | > 100 µM | > 100 µM | 24.8 µM | 57.9 µM | 47.7 µM | > 100 µM | > 100 µM | – | 22.5 µM | 40.9 µM | 38.2 µM |
| O=C1/C(=C/c2ccccc2Cl)COc2ccc(Br)cc21 | > 100 µM | – | > 100 µM | > 100 µM | – | > 100 µM | – | > 100 µM | – | > 100 µM | > 100 µM | > 100 µM | 85 µM | > 100 µM | – | – | – |
